US12180187B2, “1-phenyl-5-azinylpyrazolyl-3-oxyalkyl acids and their use for controlling unwanted plant growth” (BAYER AKTIENGESELLSCHAFT, priority 2019, dated 2024)

Assays:
PHBPU = experiment: Pre-emergence action at 320 g/ha against PHBPU; format: in vivo; details: visual scoring after about 3 weeks vs untreated controls
Description: b) Seeds of monocotyledonous and dicotyledonous weed plants and crop plants are placed in plastic or organic planting pots and covered with soil. The compounds of the invention, formulated in the form of wettable powders (WP) or as emulsion concentrates (EC), are then applied onto the surface of the covering soil as aqueous suspension or emulsion with addition of 0.5% additive at a water application rate of 600 l/ha (converted). After the treatment, the pots are placed in a greenhouse and kept under good growth conditions for the trial plants. After about 3 weeks, the effect of the preparations is scored visually in comparison with untreated controls as percentages. For example, 100% activity=the plants have died, 0% activity=like control plants. Tables 13 to 26 below show the effects of selected compounds of the general formula (I) on various harmful plants and at an application rate corresponding to 320 g/ha, which were obtained by the experimental procedure mentioned above.

LOLRI = experiment: Pre-emergence action at 320 g/ha against LOLRI; format: in vivo, Lolium rigidum; details: visual scoring after about 3 weeks vs untreated controls
Method in brief: (§1)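 Weed seeds sown in pots and covered with soil; compounds formulated as WP or EC were sprayed onto the soil surface as aqueous suspension or emulsion with 0.5% additive at 600 l/ha water. Pots kept in greenhouse; activity scored visually after about 3 weeks versus untreated controls (100% = plants dead, 0% = like control).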

ECHGC = experiment: Pre-emergence action at 320 g/ha against ECHGC; format: in vivo, Echinochloa crus-galli; details: visual scoring after about 3 weeks vs untreated controls
Method in brief: as §1

MATIN = experiment: Pre-emergence action at 320 g/ha against MATIN; format: in vivo, Tripleurospermum inodorum (Matricaria inodora); details: visual scoring after about 3 weeks vs untreated controls
Method in brief: as §1

VIOTR [1] = experiment: Pre-emergence action at 320 g/ha against VIOTR; format: in vivo, Viola tricolor; details: dosage 320 g/ha
Method in brief: as §1

AVEFA [2] = experiment: Pre-emergence action at 320 g/ha against AVEFA; format: in vivo; details: visual scoring after about 3 weeks vs untreated controls
Method in brief: as §1

POLCO [3] = experiment: Pre-emergence action at 320 g/ha against POLCO; format: in vivo, Fallopia convolvulus (Polygonum convolvulus); details: visual scoring after about 3 weeks vs untreated controls
Method in brief: as §1

ALOMY [4] = experiment: Pre-emergence action at 320 g/ha against ALOMY; format: in vivo, Alopecurus myosuroides; details: scored visually after about 3 weeks vs untreated controls (100% = plants have died)
Method in brief: as §1

VERPE = experiment: Pre-emergence action at 320 g/ha against VERPE; format: in vivo, Veronica persica; details: visual scoring after about 3 weeks vs untreated controls
Method in brief: as §1

SETVI [5] = experiment: Pre-emergence action at 320 g/ha against SETVI; format: in vivo, Setaria viridis; details: visual scoring after about 3 weeks vs untreated controls
Method in brief: as §1

AMARE [6] = experiment: Pre-emergence action at 320 g/ha against AMARE; format: in vivo, Amaranthus retroflexus; details: visual scoring after about 3 weeks vs untreated controls
Method in brief: as §1

ALOMY [7] = experiment: Post-emergence action against ALOMY, 320 g/ha; format: in vivo, Alopecurus myosuroides; details: dosage 320 g/ha, visual rating about 3 weeks after treatment vs untreated controls (100% = plants died)
Description: (§2) Accordingly, the compounds of the invention have good herbicidal action against a broad spectrum of weed grasses and broad-leaved weeds and are therefore suitable for controlling unwanted vegetation by the post-emergence method. • b) Seeds of monocotyledonous and dicotyledonous weeds and crop plants are placed in sandy loam in plastic or organic planting pots, covered with soil and cultivated in a greenhouse under controlled growth conditions. 2 to 3 weeks after sowing, the test plants are treated at the one-leaf stage. The compounds of the invention, formulated in the form of wettable powders (WP) or as emulsion concentrates (EC), are then sprayed onto the green parts of the plants as aqueous suspension or emulsion with addition of 0.5% additive at a water application rate of 600 l/ha (converted). After the test plants have been kept in the greenhouse under optimum growth conditions for about 3 weeks, the activity of the preparations is rated visually in comparison to untreated controls. For example, 100% activity=the plants have died, 0% activity=like control plants. Tables 39 to 49 below show the effects of selected compounds of the general formula (I) according to Tables 1 and 2 on various harmful plants and at an application rate corresponding to 320 g/ha, which were obtained by the experimental procedure mentioned above.

VIOTR [8] = experiment: Post-emergence action at 320 g/ha against VIOTR; format: in vivo, Viola tricolor; details: Viola tricolor, 504 h, visual rating about 3 weeks after treatment vs untreated controls
Description: as §2

ECHCG = experiment: Post-emergence action at 320 g/ha against ECHCG; format: in vivo, Echinochloa crus-galli; details: dosage 320 g/ha, visual rating about 3 weeks after treatment vs untreated controls (100% = plants died)
Description: as §2

AMARE [9] = experiment: Post-emergence action at 320 g/ha against AMARE; format: in vivo, Amaranthus retroflexus; details: Amaranthus retroflexus, 504 h, visual rating about 3 weeks after treatment vs untreated controls
Description: as §2

POLCO [10] = experiment: Post-emergence action at 320 g/ha against POLCO; format: in vivo, Fallopia convolvulus (Polygonum convolvulus); details: Fallopia convolvulus, 504 h, visual rating about 3 weeks after treatment vs untreated controls
Description: as §2

DIGSA [11] = experiment: Pre-emergence action at 320 g/ha against DIGSA; format: in vivo, Digitaria sanguinalis; details: Digitaria sanguinalis, 504 h, visual scoring after about 3 weeks vs untreated controls
Method in brief: as §1

AVEFA [12] = experiment: Post-emergence action at 320 g/ha against AVEFA; format: in vivo; details: Avena fatua, 504 h, visual rating about 3 weeks after treatment vs untreated controls
Description: as §2

DIGSA [13] = experiment: Post-emergence action at 320 g/ha against DIGSA; format: in vivo, Digitaria sanguinalis; details: Digitaria sanguinalis, 504 h, dosage 320 g/ha, visual rating about 3 weeks after treatment vs untreated controls (100% = plants died)
Description: as §2

SETVI [14] = experiment: Post-emergence action at 320 g/ha against SETVI; format: in vivo, Setaria viridis; details: visual rating about 3 weeks after treatment vs untreated controls
Description: as §2

For `CCOC(=O)CN(C)S(=O)(=O)NC(=O)COc1nn(-c2ccccc2F)c(-c2cncc(F)c2)c1Br` [Example X-041], the “Pre-emergence action against PHBPU in %” value (PHBPU) was 90%, the “Pre-emergence action against LOLRI in %” value (LOLRI) was 90% and the “Pre-emergence action against ECHGC in %” value (ECHGC) was 80%. The “Pre-emergence action against MATIN in %” value (MATIN) was 90%, the “Pre-emergence action against VIOTR in %” value (VIOTR [1]) was 100% and the “Pre-emergence action against AVEFA in %” value (AVEFA [2]) was 80%. The “Pre-emergence action against POLCO in %” value (POLCO [3]) was 90%, the “Pre-emergence action at 320 g/ha against ALOMY in %” value (ALOMY [4]) was 100% and the “Pre-emergence action against VERPE in %” value (VERPE) was 100%. For the same compound, the “Pre-emergence action against SETVI in %” value (SETVI [5]) was 90% and the “Pre-emergence action against AMARE in %” value (AMARE [6]) was 90%.

For `COC(=O)[C@@H](C)Oc1nn(-c2ccccc2F)c(-c2ccc(F)nc2)c1Br` [VII-004, Methyl (2R)-2-{[4-bromo-1-(2-fluorophenyl)-5-(6-fluoropyridin-3-yl)-1H-pyrazol-3-yl]oxy}propanoate], the “Post-emergence action against ALOMY” value (ALOMY [7]) was 90%, the pest or weed control at 320 g/ha (LOLRI; Lolium rigidum, 504 h) was 80% and the pest or weed control at 320 g/ha (VIOTR [8]) was 90%. For the same compound, the “Post-emergence action at 320 g/ha against ECHCG in %” value (ECHCG) was 90%, the pest or weed control at 320 g/ha (MATIN; Tripleurospermum inodorum, 504 h) was 80% and the pest or weed control at 320 g/ha (AMARE [9]) was 90%. It also gave a pest or weed control at 320 g/ha (VIOTR [1]; Viola tricolor, 504 h) of 100%, a pest or weed control at 320 g/ha (POLCO [3]; Fallopia convolvulus, 504 h) of 90% and a pest or weed control at 320 g/ha (POLCO [10]) of 80%. The pest or weed control at 320 g/ha (ALOMY [4]; Alopecurus myosuroides, 504 h) was 90%, the pest or weed control at 320 g/ha (SETVI [5]; Setaria viridis, 504 h) was 100% and the pest or weed control at 320 g/ha (DIGSA [11]) was 100%. For the same compound, the pest or weed control at 320 g/ha (AVEFA [12]) was 90%, the pest or weed control at 320 g/ha (DIGSA [13]) was 90% and the pest or weed control at 320 g/ha (AMARE [6]; Amaranthus retroflexus, 504 h) was 90%. The “Post-emergence action against SETVI in %” value (SETVI [14]) was 90%.
